Results on ten compounds are retold here after ChEMBL document CHEMBL1131685, “Design and semisynthesis of spermine-sensitive Ribonuclease S'” (Bioorg Med Chem Lett, 1999).

One data set in a line: Binding constant for spermine binding to Ribonuclease S (RNA ase) by saturation curve method.
In the case of `NCCCNCCCCNCCCN`, the Log K came to 5. Still for that read-out and setting: the same measure for `NCCN(CCN)CCN`: 5; for `NCCNCCNCCN`: 5. Same read-out and setting: the same measure for `C1CNCCNCCNCCN1`: 3.7; for `NCCCCNCCCN`: 5.4.

Another data set is described as follows: Association constant required to reduce the S-peptide / S-protein association by nonlinear curve fitting analysis. Format: ADME.
H-EETAEAKFERQHMDS-OH: the “Log K” value was 6.5. For H-KEEAAAKFERQHMDS-OH, the “Log K” value came to 7.1. On to H-KEEAAEKFERQHMDS-OH, for which the “Log K” value was 6.9.

Regarding H-KETAAAKFERQHMDS-OH, the “Log K” value worked out at 7.6.

Regarding H-KEDAADKFERQHMDS-OH, the “Log K” value came to 7.1.
